Reference: the supplement of paper PMC13207355

Legend:
Settings in all cases: exposure time: 72 h
[1] = test system: E13 (patient-derived glioblastoma stem cells of classical subtype); assay: surviving fraction (nuclei count normalised to DMSO); higher = more cells surviving (less toxic)
[2] = test system: E21 (patient-derived glioblastoma stem cells of mesenchymal subtype); assay: as above
[3] = test system: E28 (patient-derived glioblastoma stem cells of classical subtype); assay: as above
[4] = test system: E34 (patient-derived glioblastoma stem cells of proneural subtype); assay: as above
[5] = test system: E57 (patient-derived glioblastoma stem cells of mesenchymal subtype); assay: as above
[6] = test system: FT3469 (normal neural stem cell line); assay: as above
[7] = test system: E13; assay: phenotypic distance (Euclidean, principal components) from DMSO controls (arbitrary units); higher = stronger morphological change
[8] = test system: E21; assay: as above
[9] = test system: E28; assay: as above
[10] = test system: E34; assay: as above
[11] = test system: E57; assay: as above
[12] = test system: FT3469; assay: as above
[13] = test system: E31 (patient-derived glioblastoma stem cells of proneural subtype); assay: as above
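Wherever phenotypic distance (Euclidean, principal components) from DMSO controls is given: cell Painting imaging in 384-well plates, CellProfiler features reduced to at least 20 principal components, Euclidean distance versus same-plate DMSO vehicle wells (0.1% v/v), median over six images per well.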
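Wherever surviving fraction (nuclei count normalised to DMSO) is given: nuclei counted by high-content imaging of Hoechst-stained cells in laminin-coated 384-well plates, relative to 0.1% DMSO vehicle wells, with staurosporine as cell-death control.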

CN1CCC(NC(=O)c2cc(-c3c(O)cc(O)cc3Oc3ccc([N+](=O)[O-])cc3)on2)CC1 [NMS-E973]
Settings | phenotypic distance | surviving fraction
[1], 4.1 nM | – | 0.964
[1], 12.3 nM | – | 0.953
[1], 37 nM | – | 0.944
[1], 111.1 nM | – | 0.93
[1], 333.3 nM | – | 0.219
[1], 1000 nM | – | 0.192
[1], 3000 nM | – | 0.21
[2], 4.1 nM | – | 0.891
[2], 12.3 nM | – | 0.959
[2], 37 nM | – | 0.926
[2], 111.1 nM | – | 0.817
[2], 333.3 nM | – | 0.416
[2], 1000 nM | – | 0.257
[2], 3000 nM | – | 0.116
[3], 4.1 nM | – | 1.01
[3], 12.3 nM | – | 0.913
[3], 37 nM | – | 0.909
[3], 111.1 nM | – | 0.657
[3], 333.3 nM | – | 0.31
[3], 1000 nM | – | 0.0561
[3], 3000 nM | – | 0.0288
[4], 4.1 nM | – | 0.907
[4], 12.3 nM | – | 0.921
[4], 37 nM | – | 0.855
[4], 111.1 nM | – | 0.804
[4], 333.3 nM | – | 0.45
[4], 1000 nM | – | 0.289
[4], 3000 nM | – | 0.0598
[5], 4.1 nM | – | 0.941
[5], 12.3 nM | – | 1.01
[5], 37 nM | – | 0.9484
[5], 111.1 nM | – | 1.01
[5], 333.3 nM | – | 0.373
[5], 1000 nM | – | 0.0919
[5], 3000 nM | – | 0.0144
[6], 4.1 nM | – | 0.918
[6], 12.3 nM | – | 0.951
[6], 37 nM | – | 0.975
[6], 111.1 nM | – | 0.798
[6], 333.3 nM | – | 0.677
[6], 1000 nM | – | 0.4901
[6], 3000 nM | – | 0.4
[7], 4.1 nM | 0.577 | –
[7], 12.3 nM | 0.562 | –
[7], 37 nM | 0.639 | –
[7], 111.1 nM | 1.31 | –
[7], 333.3 nM | 4.489 | –
[7], 1000 nM | 5.34 | –
[7], 3000 nM | 5.62 | –
[8], 4.1 nM | 0.751 | –
[8], 12.3 nM | 0.626 | –
[8], 37 nM | 0.843 | –
[8], 111.1 nM | 1.82 | –
[8], 333.3 nM | 4.147 | –
[8], 1000 nM | 5.3 | –
[8], 3000 nM | 5.82 | –
[9], 4.1 nM | 0.607 | –
[9], 12.3 nM | 0.671 | –
[9], 37 nM | 0.573 | –
[9], 111.1 nM | 1.19 | –
[9], 333.3 nM | 2.09 | –
[9], 1000 nM | 5.08 | –
[9], 3000 nM | 6.81 | –
[10], 4.1 nM | 0.575 | –
[10], 12.3 nM | 0.675 | –
[10], 37 nM | 0.615 | –
[10], 111.1 nM | 1.12 | –
[10], 333.3 nM | 1.98 | –
[10], 1000 nM | 3.12 | –
[10], 3000 nM | 5.65 | –
[11], 4.1 nM | 0.456 | –
[11], 12.3 nM | 0.414 | –
[11], 37 nM | 0.335 | –
[11], 111.1 nM | 1.07 | –
[11], 333.3 nM | 2.57 | –
[11], 1000 nM | 3.42 | –
[11], 3000 nM | 4.94 | –
[12], 4.1 nM | 2.07 | –
[12], 12.3 nM | 1.21 | –
[12], 37 nM | 1.04 | –
[12], 111.1 nM | 1.74 | –
[12], 333.3 nM | 1.89 | –
[12], 1000 nM | 2.79 | –
[12], 3000 nM | 3.7 | –

Cc1ccc(C(=O)Nc2ccc(CN3CCN(C)CC3)c(C(F)(F)F)c2)cc1C#Cc1cnc2cccnn12 [Ponatinib]
phenotypic distance
Settings | [7] | [8] | [9] | [10] | [11] | [12] | [13]
4.1 nM | 1.34 | 2.02 | 0.791 | 1.37 | 3.43 | 1.73 | 0.882
12.3 nM | 1.37 | 5.3 | 1.19 | 1.08 | 4.1 | 2.15 | 1.09
37 nM | 1.75 | 1.87 | 1.3 | 1.46 | 3.63 | 1.36 | 2.13
111.1 nM | 2.38 | 2.05 | 1.57 | 1.59 | 3.38 | 1.58 | 2.63
333.3 nM | 2.71 | 4.01 | 1.29 | 2.93 | 2.19 | 2.72 | 2.59
1000 nM | 3.02 | 9.73 | 2.75 | 3.77 | 4.53 | 4.78 | 11.1
3000 nM | 5.54 | 9.25 | 3.32 | 5.85 | 5.68 | 8.72 | 8.04

CCC(C)(C)C(=O)O[C@H]1C[C@@H](C)C=C2C=C[C@H](C)[C@H](CC[C@@H]3C[C@@H](O)CC(=O)O3)[C@H]21 [Simvastatin]
phenotypic distance
Settings | [7] | [8] | [9] | [10] | [11] | [12] | [13]
4.1 nM | 0.99 | 1.6 | 1.08 | 1.5 | 1.7 | 1.31 | 0.808
12.3 nM | 0.654 | 1.96 | 1.13 | 1.01 | 0.806 | 1.32 | 0.911
37 nM | 1.13 | 2.52 | 1.19 | 0.739 | 1.4 | 2.33 | 0.566
111.1 nM | 1.23 | 2.77 | 1.42 | 0.945 | 0.799 | 1.86 | 1.39
333.3 nM | 2.27 | 4.05 | 1.61 | 1.16 | 1.19 | 2.21 | 1
1000 nM | 2.58 | 4.54 | 1.56 | 0.529 | 1.46 | 2.66 | 0.996
3000 nM | 4.02 | 5.96 | 3.67 | 1.72 | 3.54 | 3.39 | 3.45

COc1cc2c(NC3CCN(C(C)C)CC3)nc(C3CCCCC3)nc2cc1OCCCN1CCCC1 [UNC0638]
Settings | phenotypic distance | surviving fraction
[1], 4.1 nM | – | 0.973
[1], 12.3 nM | – | 0.986
[1], 37 nM | – | 0.987
[1], 111.1 nM | – | 0.957
[1], 333.3 nM | – | 1.01
[1], 1000 nM | – | 0.938
[1], 3000 nM | – | 0.894
[2], 4.1 nM | – | 0.976
[2], 12.3 nM | – | 0.999
[2], 37 nM | – | 1.11
[2], 111.1 nM | – | 1.02
[2], 333.3 nM | – | 0.976
[2], 1000 nM | – | 0.933
[2], 3000 nM | – | 0.808
[3], 4.1 nM | – | 1.03
[3], 12.3 nM | – | 0.988
[3], 37 nM | – | 1.01
[3], 111.1 nM | – | 1.01
[3], 333.3 nM | – | 0.967
[3], 1000 nM | – | 1.03
[3], 3000 nM | – | 0.942
[4], 4.1 nM | – | 0.998
[4], 12.3 nM | – | 1.1
[4], 37 nM | – | 1.082
[4], 111.1 nM | – | 1.07
[4], 333.3 nM | – | 1.15
[4], 1000 nM | – | 1.07
[4], 3000 nM | – | 0.964
[5], 4.1 nM | – | 1.03
[5], 12.3 nM | – | 1.02
[5], 37 nM | – | 1.084
[5], 111.1 nM | – | 1.01
[5], 333.3 nM | – | 1.0497
[5], 1000 nM | – | 1.08
[5], 3000 nM | – | 1.05
[6], 4.1 nM | – | 1.03
[6], 12.3 nM | – | 1.02
[6], 37 nM | – | 0.961
[6], 111.1 nM | – | 0.975
[6], 333.3 nM | – | 0.953
[6], 1000 nM | – | 0.929
[6], 3000 nM | – | 0.864
[7], 4.1 nM | 0.43 | –
[7], 12.3 nM | 0.523 | –
[7], 37 nM | 0.48 | –
[7], 111.1 nM | 0.587 | –
[7], 333.3 nM | 0.476 | –
[7], 1000 nM | 0.582 | –
[7], 3000 nM | 1.57 | –
[8], 4.1 nM | 0.389 | –
[8], 12.3 nM | 0.354 | –
[8], 37 nM | 0.463 | –
[8], 111.1 nM | 1.99 | –
[8], 333.3 nM | 0.574 | –
[8], 1000 nM | 0.957 | –
[8], 3000 nM | 2.1 | –
[9], 4.1 nM | 0.389 | –
[9], 12.3 nM | 0.447 | –
[9], 37 nM | 0.394 | –
[9], 111.1 nM | 0.488 | –
[9], 333.3 nM | 0.53 | –
[9], 1000 nM | 0.586 | –
[9], 3000 nM | 1.38 | –
[10], 4.1 nM | 0.461 | –
[10], 12.3 nM | 0.632 | –
[10], 37 nM | 0.627 | –
[10], 111.1 nM | 0.646 | –
[10], 333.3 nM | 0.795 | –
[10], 1000 nM | 0.627 | –
[10], 3000 nM | 0.864 | –
[11], 4.1 nM | 0.284 | –
[11], 12.3 nM | 0.449 | –
[11], 37 nM | 0.421 | –
[11], 111.1 nM | 0.484 | –
[11], 333.3 nM | 0.486 | –
[11], 1000 nM | 0.443 | –
[11], 3000 nM | 1.09 | –
[12], 4.1 nM | 0.514 | –
[12], 12.3 nM | 0.766 | –
[12], 37 nM | 0.527 | –
[12], 111.1 nM | 0.558 | –
[12], 333.3 nM | 0.523 | –
[12], 1000 nM | 0.714 | –
[12], 3000 nM | 3.19 | –
